In PMC10432564, “Pharmacological perturbation of the phase-separating protein SMNDC1” (Nature Communications, 2023):

How the values were obtained:
SMN-RFP intron 5-6, αTC1 = assay: Live imaging of SMN-RFP; assay type: cell-based, mouse; details: 50 µM, 16 h
Excerpt: Cell lines with fluorescent tags in the endogenous intron loci of different genes were generated as described in Serebrenik et al., and Reicher et al.[39],[74]. Cells were transiently transfected using Avalanche-Everyday Transfection Reagent with three plasmids in parallel: (1) the donor plasmid containing the artificial intron with splice acceptor and splice donor site, the fluorescent tag GFP or RFP, and a possible correction for the frame of the targeted intron, (2) a pX330 backbone containing Cas9 and the gRNA against the donor plasmid, and (3) a plasmid expressing the gRNA against the target intron (see table below). After 3–5 days, GFP- and/or RFP-positive cells were sorted on a SONY SH800 Cell Sorter to get fluorescent single cell clones. […]
Images were analyzed using the high-content image acquisition and analysis software Harmony® 4.9 developed by PerkinElmer. […] Even though the highest staining of these nuclear markers is obviously detected in the nucleus they still produce a significant staining of the cytoplasm above background. After defining the respective cell areas, mean intensity in the different channels was measured. […]

[1] = system: SRRM2-RFP intron 9-10, αTC1; assay: Live imaging of SRRM2-RFP (nuclear speckles); assay type: cell-based, mouse
Excerpt: (§1) Cell lines with fluorescent tags in the endogenous intron loci of different genes were generated as described in Serebrenik et al., and Reicher et al.[39],[74]. Cells were transiently transfected using Avalanche-Everyday Transfection Reagent with three plasmids in parallel: (1) the donor plasmid containing the artificial intron with splice acceptor and splice donor site, the fluorescent tag GFP or RFP, and a possible correction for the frame of the targeted intron, (2) a pX330 backbone containing Cas9 and the gRNA against the donor plasmid, and (3) a plasmid expressing the gRNA against the target intron (see table below). After 3–5 days, GFP- and/or RFP-positive cells were sorted on a SONY SH800 Cell Sorter to get fluorescent single cell clones. Clones were validated for the correct integration of the intron-tag via comparison of live cell images to publicly available or in-house IF images, genomic DNA PCR amplification of the respective loci, and western blots with antibodies against the target protein and/or the fluorescent tag.
(§2) Cells were imaged on a PerkinElmer Opera Phenix automated microscope with 500 ms exposure time in either GFP or RFP channel, or on a Zeiss LSM 980 microscope. For condition-independent identification nuclear markers such as Hoechst or DRAQ5^TM were used.
Images were analyzed using the high-content image acquisition and analysis software Harmony® 4.9 developed by PerkinElmer. First, nuclei were identified in the channel of the nuclear marker (DAPI/ Hoechst/ DRAQ5^TM) (with Method C, Common Threshold 0.75, Area > 10 µm^2). After the identification of nuclei, their corresponding cytoplasm was also identified using the respective nucleic acid marker (with Method A, Individual Threshold 0.15). Even though the highest staining of these nuclear markers is obviously detected in the nucleus they still produce a significant staining of the cytoplasm above background. After defining the respective cell areas, mean intensity in the different channels was measured. […]

[2] = system: SMNDC1-GFP intron 2-3, SRRM2-RFP intron 9-10, αTC1-clone; assay: Fluorescence recovery after photobleaching (FRAP); assay type: cell-based, mouse; details: 50 µM, 15-45 min
Procedure: For FRAP experiments, cells harboring intron-tags in SMNDC1 and SRRM2 were seeded 24 h before imaging on a Zeiss LSM 980 microscope. 15 min before imaging, medium was changed to medium without phenol red containing DRAQ5^TM 1:1000 to reduce autofluorescence and to mark nuclei. If cells were treated with compounds, these were added in the same step. After identifying a suitable cell, bleach and reference regions were defined. After taking one reference image, the bleach region was bleached 15 times for 5 milliseconds with 100% laser power at 488 nm for GFP and with 20% laser power at 546 nm for RFP. After bleaching, a new image was taken approximately every 3 s until 150 s after bleaching. Fluorescence intensities were quantified in the bleach and reference regions for every image and normalized to the intensity before bleaching.

SMN Tudor domain = SMN Tudor domain (Homo sapiens, UniProt Q16637); assay: AlphaScreen, SMN Tudor domain / sDMA-peptide interaction
SMN Tudor domain, sequence (Q16637 84-147): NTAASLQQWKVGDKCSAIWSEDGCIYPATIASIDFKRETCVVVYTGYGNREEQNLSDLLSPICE
Procedure: To establish an AlphaScreen[50], we coupled donor beads to purified SMNDC1’s (or SMN’s) Tudor domain via a His-Tag and acceptor beads to a biotinylated peptide corresponding to the C-terminal region of the Small nuclear ribonucleoprotein Sm D3 containing four sDMAs (Fig. 4a). […] To identify ideal concentrations for screening, we performed a cross-titration of Tudor domains and binding peptides (Supplementary Fig. 3b).
(§3) The AlphaScreen was conducted in 20 mM sodium phosphate pH 6.5, 50 mM NaCl, Tween 0.01%, BSA 0.1%. Protein concentration was optimized for each batch of purified protein. Optimal concentration was chosen at the lowest concentration with ~80% of maximum signal. […] In the first step, 10 µl of the protein solution containing either SMNDC1’s or SMN’s Tudor domain coupled to a 6xHis-Tag were distributed to 384-well plates pre-spotted with compounds and controls, shaken and incubated for 30 min at RT. Afterwards, 10 µl of peptide solution was added to each well and incubated for 1 h at RT. Finally, 5 µl of a solution containing both Streptavidin Donor and nickel chelate (Ni-NTA) Acceptor beads was added and again incubated for 1 h at RT.

αTC1 cells = assay: Alternative splicing, RNA sequencing (VAST-TOOLS) and RT-PCR; assay type: cell-based, mouse
Procedure: To perform splicing PCRs, RNA was isolated from pelleted cells using the RNeasy Mini Kit (Qiagen, #74106).
RNA sequencing libraries were prepared from low-input samples using the Smart-seq2 protocol. The subsequent library preparation from the amplified cDNA was performed using the Nextera XT DNA library prep kit (Illumina, San Diego, CA, USA). Library concentrations were quantified with the Qubit 2.0 Fluorometric Quantitation system (Life Technologies, Carlsbad, CA, USA) and the size distribution was assessed using the Experion Automated Electrophoresis System (Bio-Rad, Hercules, CA, USA). For sequencing, samples were diluted and pooled into NGS libraries in equimolar amounts.
Alternative splicing events were characterized and quantified using VAST-TOOLS[54] (2.5.1) in conjunction with the Mus musculus database (vastdb.mm2.23.06.20), based on the Genome Reference Consortium assembly GRCm38.p5 and Ensembl transcript annotation 88 (March 2017). Briefly, NGS reads were aligned for each read group independently, read groups were merged into samples and samples were combined into a summary table. […]

[3] = Solubility in aqueous, buffered solution for NMR; assay type: physicochemical
Procedure: All NMR acquisition was performed in 3 mm tubes at 25 °C. […] All titration measurements were performed in 20 mM sodium phosphate buffer pH 6.5, 50 mM NaCl, 4 mM dithiothreitol and 10% (v/v) D2O as deuterium lock. Aqueous, buffered inhibitor stock solutions of maximal 20 mM concentration were prepared and carefully adjusted to pH 6.5. Inhibitor concentration was measured by addition of 100 µM DSS, peak integration and calculating with C=I⋅NDSS⋅CDSS/IDSS⋅N where C, I, N and CDSS, IDSS, NDSS is the concentration, peak intensity, and number of protons of inhibitor and DSS, respectively.

SMNDC1-GFP αTC1 clones = assay: Live imaging of endogenously tagged SMNDC1-GFP; assay type: cell-based, mouse; details: 50 µM, 12–16 h
Excerpt: as §1, §2
Images were analyzed using the high-content image acquisition and analysis software Harmony® 4.9 developed by PerkinElmer. First, nuclei were identified in the channel of the nuclear marker (DAPI/ Hoechst/ DRAQ5^TM) (with Method C, Common Threshold 0.75, Area > 10 µm^2). After the identification of nuclei, their corresponding cytoplasm was also identified using the respective nucleic acid marker (with Method A, Individual Threshold 0.15). Even though the highest staining of these nuclear markers is obviously detected in the nucleus they still produce a significant staining of the cytoplasm above background. After defining the respective cell areas, mean intensity in the different channels was measured. Finally, spots were identified with the according “Spots” algorithm (with Method A, Relative Spot Intensity > 0.053, Splitting Sensitivity: 1.0).

SMNDC1 Tudor domain = target: T1, SMNDC1 Tudor domain (Homo sapiens, UniProt O75940); assay: AlphaScreen, SMNDC1 Tudor domain / sDMA-peptide interaction
T1 sequence (O75940 65-128): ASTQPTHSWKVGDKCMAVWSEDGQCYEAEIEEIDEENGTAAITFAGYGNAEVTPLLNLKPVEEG
Excerpt: To pharmacologically perturb SMNDC1 function, we set out to identify small molecule inhibitors of SMNDC1’s Tudor domain based on perturbing its interaction with a dimethylarginine peptide. To establish an AlphaScreen[50], we coupled donor beads to purified SMNDC1’s (or SMN’s) Tudor domain via a His-Tag and acceptor beads to a biotinylated peptide corresponding to the C-terminal region of the Small nuclear ribonucleoprotein Sm D3 containing four sDMAs (Fig. 4a). […] To identify ideal concentrations for screening, we performed a cross-titration of Tudor domains and binding peptides (Supplementary Fig. 3b).
as §3
Category Parameter Description
Assay Type of assay In vitro AlphaScreen / luminescence proximity
Target Tudor domain of SMNDC1
Primary measurement Decrease in luminescence signal reflecting
disruption of heterodimeric complex between
SMNDC1-Tudor domain and a peptide
corresponding to the C-terminus of Small nuclear
ribonucleoprotein Sm D3 containing 4 sDMAs
Key reagents AlphaScreen no-wash assay kit containing
Streptavidin Donor beads and nickel chelate (Ni-
NTA) AlphaScreen Acceptor beads (PerkinElmer
Assay protocol Described in Methods section
Screen Format PerkinElmer OptiPlate-384 well plate
Concentration(s) tested Typically 10 μM (0.1% DMSO)
Plate controls 32 positive control wells (Mitoxantrone, quencher),
32 negative control wells (DMSO)
Reagent/ compound dispensing system Echo 520 Liquid Handler Multidrop™ Combi
Normalization Raw signal was normalized plate-specifically by
correcting row and column-specific mean signals to
the mean signal of the entire plate, each after
removing the highest and lowest 25% of values. Raw
signal was then converted to percent of control
signal, but linear regression to plate-specific mean
signal of DMSO wells (set to 100 percent of control)
and positive control wells (set to 0% of control), after
outlier removal using a Grubbs test.
unspecific quenchers), Secondary screen (with

CN(C)S(=O)(=O)c1ccc(C(=O)Nc2nc(-c3ccccn3)cs2)cc1 [compound 1]
number of SMN spots in the cytoplasm (SMN-RFP intron 5-6, αTC1): increased | overall intensity of SMN (SMN-RFP intron 5-6, αTC1): decreased | SRRM2 and general organization of nuclear speckles [1]: affected | SRRM2 spots [1]: appeared to dissolve into the nucleoplasm | overall SRRM2 intensity [1]: slightly reduced | recovery after photobleaching of SMNDC1 and SRRM2 [2]: lower recovery after photobleaching | IC50 (SMN Tudor domain): 880 nM | alternatively spliced isoforms by RT-PCR, long-term low-dose treatment (αTC1 cells; 2 µM over 5 days): could also see the effect | alternative splicing events (αTC1 cells; paired-end RNA sequencing, compound over DMSO): increased retention of introns and skipping of exons | solubility [3]: insufficient solubility | SMNDC1-GFP spots within the nucleus (SMNDC1-GFP αTC1 clones): less spots were detected within the nucleus | SMNDC1 within the nucleus (nuclear SMNDC1-GFP) (SMNDC1-GFP αTC1 clones): loss of SMNDC1 within the nucleus | IC50 (SMNDC1 Tudor domain): 500 nM
